PMC6017707, “Structure Related Inhibition of Enzyme Systems in Cholinesterases and BACE1 In Vitro by Naturally Occurring Naphthopyrone and Its Glycosides Isolated from Cassia obtusifolia” (Molecules : A Journal of Synthetic Chemistry and Natural …, 2017)
“And” between values parts separate entries of the source, which are not always exact repeats. Identical values can stand only once. “Also recorded” adds a separate entry of the source. Like-named read-outs stand apart in the source and are kept apart here.

How the values were obtained:
[1] = target: T1, Electric eel acetylcholinesterase (Electrophorus electricus, UniProt O42275); assay: In vitro AChE inhibition assay (Ellman spectrophotometric method); type: biochemical
T1 construct: purchased Sigma Co. (St. Louis, MO, USA)
Experimental: (§1) The inhibitory activities of isolated compounds against ChEs were measured using the spectrophotometric method, as described previously. Briefly, AChI and BCh were used as the substrates to assay the inhibition of AChE and BChE, respectively. Each reaction mixture contained 140 µL of sodium phosphate buffer (pH 8.0); 20 µL of compounds (final conc., 100 µM); and, 20 µL of either AChE or BChE solution, which was mixed and incubated for 15 min at room temperature. […] Reactions were initiated by the addition of 10 µL of DTNB and 10 µL of either AChI or BCh. […] All of the reactions were performed in triplicate and recorded in 96-well microplate format using a microplate spectrophotometer (Molecular Devices, Sunnyvale, CA, USA). Percent inhibition was calculated as (1-S/E) × 100, where E and S were the respective enzyme activities without and with the tested sample, respectively.

[2] = target: T2, horse serum butyrylcholinesterase (Equus caballus, UniProt P81908); assay: In vitro BChE inhibition assay (Ellman spectrophotometric method); type: biochemical
T2 construct: horse-serum BChE (EC 3.1.1.8); purchased Sigma Co. (St. Louis, MO, USA); host or cells: horse serum
Experimental: as §1

human recombinant BACE1 [3] = target: T3, human recombinant BACE1 (Homo sapiens, UniProt P56817); assay: In vitro BACE1 FRET enzyme assay; type: biochemical; conditions: for IC50: log dose inhibition curve; for BACE1 inhibitory activity (in words): at concentrations up to 200 µM
T3 construct: purchased Pan Vera Co. (Madison, WI, USA)
Experimental: Assays were performed according to the supplied manual (Pan Vera Co.) with selected modifications, as described previously. […] Fluorescence was measured with a microplate spectrophotometer (Molecular Devices). The percent of inhibition (%) was obtained by the following equation: % Inhibition = [1 − (S60 − S0)/(C60 − C0)] × 100, where C60 was the fluorescence of the control (enzyme, buffer, and substrate) after incubation for 60 min, C0 was the initial fluorescence of the control, S60 was the fluorescence of the tested samples (enzyme, sample solution, and substrate) after incubation for 60 min, and S0 was the initial fluorescence of the tested samples. To account for the quenching effect of samples, the sample solution was added to a separate reaction mixture C, and any reduction in fluorescence by the sample was investigated.

[4] = target: T1, Electric eel acetylcholinesterase; assay: Enzyme kinetic analysis with AChE (Dixon and Lineweaver-Burk plots); type: biochemical
Experimental: Inhibition constants (Ki) were determined by the interpretation of Dixon plots, where the x-axis intercept was taken as Ki.

[5] = parameters: method as in PMID 10319159; conditions: cited from earlier work
human recombinant BACE1 [6] = target: T3, human recombinant BACE1; assay: Enzyme kinetic analysis with BACE1 (Dixon and Lineweaver-Burk plots); type: biochemical
Experimental: Assays were performed according to the supplied manual (Pan Vera Co.) with selected modifications, as described previously. Briefly, mixtures of 10 µL of assay buffer (50 mM sodium acetate, pH 4.5), 10 µL of BACE1 (1.0 U/mL), 10 µL of the substrate (750 nM Rh-[…]-Quencher in 50 mM, ammonium bicarbonate), and 10 µL of compounds (final conc., 100 µM) dissolved in 10% DMSO were incubated for 60 min at 25 °C in the dark. The proteolysis of two fluorophores (Rh-[…]-Quencher) by BACE1 was monitored by the formation of fluorescent donor Rh-EVNL (530–545 nm, excitation; 570–590 nm, emission), the abundance of which was determined by measuring increase in fluorescence excited at 545 nm and recorded at 585 nm. Fluorescence was measured with a microplate spectrophotometer (Molecular Devices). The percent of inhibition (%) was obtained by the following equation: % Inhibition = [1 − (S60 − S0)/(C60 − C0)] × 100, where C60 was the fluorescence of the control (enzyme, buffer, and substrate) after incubation for 60 min, C0 was the initial fluorescence of the control, S60 was the fluorescence of the tested samples (enzyme, sample solution, and substrate) after incubation for 60 min, and S0 was the initial fluorescence of the tested samples. […]

human recombinant BACE1 [7] = target: T3, human recombinant BACE1; conditions: cited from earlier work; for BACE1 inhibitory activity (in words): compounds isolated from n-BuOH fraction in earlier study
[8] = mean ± S.E.M of triplicate experiments, log dose inhibition curve, read-out: AChE IC50
[9] = mean ± S.E.M of triplicate experiments, log dose inhibition curve, read-out: BChE IC50
[10] = mean ± S.E.M of triplicate experiments, read-out: BACE1 IC50

T1 sequence (O42275 24-633): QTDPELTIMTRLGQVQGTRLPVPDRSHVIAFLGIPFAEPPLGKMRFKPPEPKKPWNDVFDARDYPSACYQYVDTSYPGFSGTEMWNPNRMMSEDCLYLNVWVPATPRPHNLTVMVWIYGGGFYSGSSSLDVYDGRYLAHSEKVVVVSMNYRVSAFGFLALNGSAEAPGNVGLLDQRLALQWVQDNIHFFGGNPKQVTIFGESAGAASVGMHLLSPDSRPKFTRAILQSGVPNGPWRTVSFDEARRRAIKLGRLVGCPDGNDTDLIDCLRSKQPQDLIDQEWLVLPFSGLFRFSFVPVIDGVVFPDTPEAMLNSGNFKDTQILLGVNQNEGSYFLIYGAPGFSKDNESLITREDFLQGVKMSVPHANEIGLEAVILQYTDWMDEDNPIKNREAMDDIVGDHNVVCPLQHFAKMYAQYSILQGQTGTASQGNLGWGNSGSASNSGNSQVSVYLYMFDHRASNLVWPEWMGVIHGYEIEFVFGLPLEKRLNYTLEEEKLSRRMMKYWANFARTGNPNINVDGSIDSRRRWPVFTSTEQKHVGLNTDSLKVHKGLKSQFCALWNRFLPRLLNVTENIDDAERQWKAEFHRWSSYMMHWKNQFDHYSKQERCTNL
T3 sequence (P56817 46-501): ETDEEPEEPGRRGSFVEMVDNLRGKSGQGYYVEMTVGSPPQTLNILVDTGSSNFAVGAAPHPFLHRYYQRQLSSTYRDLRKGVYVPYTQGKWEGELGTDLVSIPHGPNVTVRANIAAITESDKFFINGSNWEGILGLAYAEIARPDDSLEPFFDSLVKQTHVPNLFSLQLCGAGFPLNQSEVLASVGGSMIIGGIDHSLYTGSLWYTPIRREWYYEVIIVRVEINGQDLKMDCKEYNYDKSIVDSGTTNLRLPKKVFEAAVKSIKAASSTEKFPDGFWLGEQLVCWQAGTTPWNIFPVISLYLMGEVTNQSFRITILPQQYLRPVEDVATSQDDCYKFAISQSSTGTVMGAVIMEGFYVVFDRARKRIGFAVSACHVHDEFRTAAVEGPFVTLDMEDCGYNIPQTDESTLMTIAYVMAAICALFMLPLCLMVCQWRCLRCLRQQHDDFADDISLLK
T2 sequence (P81908 whole entry): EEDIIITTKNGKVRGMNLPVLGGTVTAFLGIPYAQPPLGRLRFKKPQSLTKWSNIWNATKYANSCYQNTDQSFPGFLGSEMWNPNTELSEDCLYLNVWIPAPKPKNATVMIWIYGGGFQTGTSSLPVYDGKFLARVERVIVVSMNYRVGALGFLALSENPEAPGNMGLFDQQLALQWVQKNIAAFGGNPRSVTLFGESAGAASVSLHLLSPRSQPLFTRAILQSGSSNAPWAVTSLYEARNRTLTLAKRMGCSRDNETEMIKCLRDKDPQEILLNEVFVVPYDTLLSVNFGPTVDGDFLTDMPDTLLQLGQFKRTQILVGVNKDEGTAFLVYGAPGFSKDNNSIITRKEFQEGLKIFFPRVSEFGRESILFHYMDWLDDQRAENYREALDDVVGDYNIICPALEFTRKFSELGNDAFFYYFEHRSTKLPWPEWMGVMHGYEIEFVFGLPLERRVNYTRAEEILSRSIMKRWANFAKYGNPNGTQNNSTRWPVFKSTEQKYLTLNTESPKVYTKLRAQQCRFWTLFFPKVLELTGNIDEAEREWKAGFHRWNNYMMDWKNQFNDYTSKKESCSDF

COc1ccc2cc3[n+](cc2c1OC)CCc1cc2c(cc1-3)OCO2 [Berberine, berberine, reference compound]
IC50 [1]: 0.68 ± 0.01 µM

COc1cc(O)c2c(O)c3c(=O)cc(C)oc3cc2c1 [Compound 1, rubrofusarin]
IC50 [1]: 124 ± 1.39 µM | IC50 [2]: > 200 µM | IC50 (human recombinant BACE1 [3]; BACE1 IC50, mean ± S.E.M of triplicate experiments): 90 ± 2.38 µM

COc1cc(OC2OC(CO)C(O)C(O)C2O)c2c(O)c3c(=O)cc(C)oc3cc2c1 [Compound 2, rubrofusarin 6-O-β-D-glucopyranoside]
IC50 [1, 8]: 148 ± 2.09 µM | IC50 [2, 9]: > 200 µM | IC50 (human recombinant BACE1 [3]; [10]): 148 µM and 191 µM

COc1cc(O[C@@H]2O[C@H](CO[C@@H]3O[C@H](CO)[C@@H](O)[C@H](O)[C@H]3O)[C@@H](O)[C@H](O)[C@H]2O)c2c(O)c3c(=O)cc(C)oc3cc2c1 [Compound 3, rubrofusarin 6-O-β-D-gentiobioside]
AChE inhibition relative to 5, 6 and 4 [1]: five times | AChE inhibition relative to 1 ([1]; fold more effective than 1 (no sugar moiety)): eight times | AChE inhibition relative to 2 ([1]; fold more effective than 2 (one sugar moiety)): nine times | IC50 [1, 8]: 15.9 ± 0.32 µM | IC50 [2, 9]: 141.2 ± 1.23 µM | IC50 (human recombinant BACE1 [3]; [10]): 85.7 ± 3.98 µM | Ki ([4]; Dixon plot, read-out: Ki Value (AChE inhibition constant)): 12.8 µM | Inhibition Type (AChE) ([4]; Lineweaver-Burk plot): mixed type inhibition; also recorded: Mixed type ^c | Radical scavenging activity relative to 4 [5]: twice

Cc1cc(=O)c2c(O)c3c(OC4OC(CO)C(O)C(O)C4O)cc(O)cc3cc2o1 [Compound 4, nor-rubrofusarin 6-O-β-D-glucoside]
IC50 [1, 8]: 86 ± 2.01 µM | IC50 [2, 9]: > 200 µM | IC50 (human recombinant BACE1 [3]; [10]): 86 µM and 14.4 µM | Ki (human recombinant BACE1 [6]; Dixon plot, read-out: Ki Value (BACE1 inhibition constant)): 10 µM | Inhibition Type (BACE1) (human recombinant BACE1 [6]; Lineweaver-Burk plot): mixed type of inhibition; also recorded: Mixed type ^e | BACE1 inhibitory activity (in words) (human recombinant BACE1 [7]): most potent BACE1 inhibitory activity

COc1cc(O[C@@H]2O[C@H](CO[C@@H]3O[C@H](CO)[C@@H](O)[C@H](O)[C@H]3O)[C@@H](O)[C@H](O)[C@H]2O)c2c(c1)cc(O)c1c(=O)cc(C)oc12 [Compound 5, isorubrofusarin 10-O-β-D-gentiobioside]
IC50 [1, 8]: 83.5 ± 1.56 µM | IC50 [2, 9]: > 200 µM | BACE1 inhibitory activity (in words) (human recombinant BACE1 [3]): no significant inhibitory activity | IC50 (human recombinant BACE1 [3]; [10]): > 200 µM

COc1cc(O[C@@H]2O[C@H](CO[C@@H]3O[C@H](CO)[C@@H](O)[C@H](O[C@@H]4O[C@H](CO)[C@@H](O)[C@H](O)[C@H]4O)[C@H]3O)[C@@H](O)[C@H](O)[C@H]2O)c2c(O)c3c(=O)cc(C)oc3cc2c1 [Compound 6, rubrofusarin 6-O-β-D-triglucoside]
IC50 [1, 8]: 82.3 ± 1.63 µM | IC50 [2, 9]: > 200 µM | BACE1 inhibitory activity (in words) (human recombinant BACE1 [3]): no significant inhibitory activity | IC50 (human recombinant BACE1 [3]; [10]): > 200 µM

COc1cc(OC)c2c(=O)c(OC)c(-c3ccc(OC)c(OC)c3)oc2c1 [PMF, 3,5,7,3′,4′-pentamethoxyflavone, reference compound]
IC50 (human recombinant BACE1 [7]; read-out: BACE1 IC50, literature value for PMF): 59.8 µM | BACE1 inhibitor type (human recombinant BACE1 [7]; reported for PMF): noncompetitive inhibitor

toralactone gentiobioside
BACE1 inhibitory activity (in words) (human recombinant BACE1 [7]): moderate activity
